Read-outs that look alike come from different tables or passages of the source.
Experiments:
Assay type in all cases: cell-based, Escherichia coli
[1] = test system: screening strain DR1212; assay: macrodroplet screening assay for DNA-interacting agents; settings: DNA excluded from the bioassay medium
Method: (§1) After the period of incubation as described above, macrodroplets can be screened for biological activities by a unique technique termed macrodroplet screening assay. The biological activities of compounds secreted by the encapsulated microorganisms and contained within the macrodroplet beads can be detected by, for example, cell growth inhibition. In general, screening strains should first be cultured to a certain cell density (proper OD reads as described in section 5.3.3.) in liquid medium and then plated in semi-solid medium matrix (0.8%), which overlays the macrodroplet beads (see FIG. 1, item 140. Item 145 of FIG. 1 represents the top layer of semi-solid medium matrix containing a selected screening strain). After being incubated overnight, the screening strain can grow throughout the matrix, except in areas where macrodroplet beads release metabolites, which prevent the growth of the screening strain. The inhibition of cell growth may result in zones of inhibition around these beads (see item 155, FIG. 1), which usually can be detected visually.
Screening for DNA-interacting agents was carried out using the standard macrodroplet screening method previously described, with the exception that DNA was excluded from the bioassay medium. Following overnight incubation at 35° C., macrodroplet beads from zones of inhibition are recovered and processed via the normal route as discussed in section 5.2.2.4.
Alternatively, a second round screening was performed to increase specificity of the screening. Microorganisms obtained as the outcome of the screening described above were subject to a second round of screening using screening strains having a lacZ reporter gene controlled by promoters responsive to DNA damage, such as CM191 and CM242 (see section 5.3.1.d. The details of screening procedure are discussed in both section 5.2.3. Microorganisms from macrodroplets producing zones of activity were purified using methods previously described and fermented in larger volumes. Their species specificities were determined by sequencing their 16S rRNA genes and the active compounds were purified and further characterized. Several active compounds were selected by DR1212, such as chrysomycin, streptonigrin, daunomycin and chromomycin, which are all known DNA damaging agents.

[2] = test system: E. coli MG1655; set-up: unit not given here
[3] = test system: E. coli screening strain DR1234; set-up: unit not given here; settings: Table 7, MHB medium
In short: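 Drug resistance of E. coli MG1655-derived strain DR1234, carrying introduced drug-resistance genes, measured by standard MIC assay in MHB liquid medium.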

[4] = test system: E. coli screening strain CM166; set-up: unit not given here; settings: Table 9, MHB medium
Description: The level of drug resistance of CM166 was estimated by MIC assay carried out in MHB liquid medium and the results were summarized in Table 9. CM166 is resistant to antibacterial agents whose resistant genes have been incorporated into the strain, but not to other antibacterial drugs whose resistant genes are not incorporated.

[5] = test system: E. coli screening strain DR1212; set-up: unit not given here; settings: Table 11, MHB medium
Method: The level of drug-resistance of screening strain DR1212 was analyzed by standard MIC assay in MHB liquid medium and the result was summarized in Table 11. Similar to screening strains, DR1234 and CM166, DR1212 is also resistant to drugs whose resistant genes have been introduced.

[6] = test system: E. coli screening strain CM242; set-up: unit not given here; settings: second Table 12, MHB medium
Method: The level of drug resistance of these screening strains (both intermediates and finals) was evaluated by standard MIC assay in MHB liquid medium and the result of Strain CM242 is summarized in Table 12.

[7] = test system: E. coli screening strain CM400; set-up: unit not given here; settings: Table 13, MHB medium
In short: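 MIC determined by standard broth assay in MHB liquid medium for E. coli screening strains CM400 and CM435.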

[8] = test system: E. coli screening strain CM435; set-up: Minimal inhibitory concentrations (MIC90) CM435: unit not given here; settings: for Minimal inhibitory concentrations (MIC90) CM435: Table 13, MHB medium
[9] = test system: screening strain CM166; assay: macrodroplet screening assay, zones of inhibition; settings: soil actinomycetes in macrodroplets, DNA and biotin in medium
Method: as §1
Next, microorganisms from the soil samples collected as described above were encapsulated to form macrodroplets populated by a single microorganism in each bead, according to the pre-determined cfu count of the particular soil extract. In this process, an aliquot of the soil bacteria suspension was diluted in 10% glycerol to generate an inoculum of the required density. This adjusted suspension was then mixed with nutrient medium, counterselective agents (see above) and 1.4% sodium alginate and the resultant mixture processed through an Inotech Encapsulator® Research device, to produce gel-beads (called macrodroplets) by the formation of droplets of liquid from a fluid stream. The droplets solidified into gel-beads as they came into contact with a calcium chloride bath, which also contained nutrient medium and counterselective agents. After a defined hardening time the macrodroplets were washed to remove excess calcium chloride and to stop the hardening process. Smidsrod and Skjak-Braek, 1990, “Alginate as immobilization matrix for cells,” Trends Biotechnol. 8(3):71-8. Cured macrodroplets containing microorganisms were then spread in dishes from which excess fluid was removed. The macrodroplets subsequently allowed growth of the target organisms and production of secondary metabolites such as anti-microbial agents. Macrodroplets were spread evenly over the plate using a sterile spreader (5,000 particles per plate) and incubated at 28-30° C. for 7 days to allow the growth of the microorganism within, and the production of secondary metabolites.
CM166 (see section 5.3.1.b for details) was used as the test strain in this example. Two to three single colonies of CM166 were inoculated into a shake flask containing 10 ml of MHB medium with 40 μg/ml Tmp and 200 μg/ml Amp. After the cells were cultured at 35° C. for 2-3 hours, an OD reading was performed. If the OD reading was above 0.1 (equivalent to 2×10^8 cfu), the screening strain was ready for dilution. Otherwise, the strain needed to be incubated for longer time until the OD read reached >0.1. Medium for the macrodroplet assay (in 1 L Duran, add 10.5 g MHB power, 4 g agar (0.8%), and 1 g DNA) was autoclaved and cooled to ˜45° C., and ampicillin (25 mg/ml), tetracycline (10 mg/ml), daptomycin (20 mg/ml) and biotin (0.1 μg/ml) were added, together with 2.5 ml screening strain. […]

[10] = test system: lacZ reporter gene of the screening strains (CM191, CM242); assay: S-Gal staining assay on solid medium; settings: screening strains on solid medium, drug-impregnated disks, PETG to suppress background
Description: The screening strains' responses to DNA damaging agents were further confirmed by S-Gal staining assay. When mitomycin C and streptonigrin (both were well-known DNA damaging drugs) and S-Gal, the indicator, were applied to the screening strains growing on solid medium, blue-colored rings were visible around colonies in drug-impregnated disks. […] Actinomycin D was an exception. CM242 was not sensitive to this drug, although it disrupts DNA structure. PETG (2-phenyethyl B-D-thiogalactoside, Sigma, St Louis Mo.), was used in this experiment to suppress unspecific background activity.

[11] = test system: PrecN′-'lacZ fusion gene in CM242; assay: β-galactosidase activity in the presence of DNA damaging drugs
Method: (§2) The responses to DNA damaging agents of the screening strains described above were measured by analyzing the β-galactosidase activity in the presence of DNA damaging drugs. This method is described in detail in “A Short Course in Bacterial Genetics” 1992, ed. Miller, Cold Spring Harbor Press, pp. 72-74. The PsulA′-'lacZ fusion gene in CM191 was induced 15 fold compared to a non-induced control two hours after the addition of mitomycin C (0.5 μg/ml). In the case of CM242 which contains the PrecN′-'lacZ fusion gene, a more than 40-fold induction had been observed. Such induction was also drug-specific. In an experiment when phosphomycin (at 10 μg/ml) was used, there was no induction of the β-galactosidase activity.

[12] = test system: PsulA′-'lacZ fusion gene in CM191; assay: as above; settings: CM191, two hours after addition, 0.5 μg/ml
Method: as §2

Row | Compound | active compound selected by DR1212 [1] | Minimal inhibitory concentrations (MIC90) MG1655 ([2]; Table 13, MHB medium) | Minimal inhibitory concentrations (MIC90) DR1234 [3] | Minimal inhibitory concentrations (MIC90) CM166 [4] | Minimal inhibitory concentrations (MIC90) DR1212 [5] | Minimal inhibitory concentrations (MIC90) CM242 [6] | Minimal inhibitory concentrations (MIC90) CM400 [7] | Minimal inhibitory concentrations (MIC90) CM435 [8] | bioactive compound of actinomycete strains selected with CM166 [9] | further results
1 | COC1C(O)CC(OC2CC(Oc3cc4cc5c(c(O)c4c(O)c3C)C(=O)[C@@H](OC3CC(OC4CC(OC6CC(C)(O)C(OC(C)=O)C(C)O6)C(O)C(C)O4)C(O)C(C)O3)[C@H]([C@H](OC)C(=O)[C@@H](O)[C@@H](C)O)C5)OC(C)C2OC(C)=O)OC1C (stereo partly shown) [chromomycin] | active |  |  |  |  |  |  |  |  | 
2 | COc1cccc2c1C(=O)c1c(O)c3c(c(O)c1C2=O)C[C@@](O)(C(C)=O)C[C@@H]3O[C@H]1C[C@H](N)[C@H](O)[C@H](C)O1 [Daunorubicin] | active | >256 | >400 | >400 | 12.5 | 100 | >256 | 8 |  | Minimal inhibitory concentrations (MIC90) MG1655 ([2]; Table 7, MHB medium): 200; Minimal inhibitory concentrations (MIC90) MG1655 ([2]; Table 9, MHB medium): 200; Minimal inhibitory concentrations (MIC90) MG1655 ([2]; Table 11, MHB medium): 200; Minimal inhibitory concentrations (MIC90) MG1655 ([2]; second Table 12, MHB medium): 200; sensitivity of CM435 according to the MIC results ([8]; MHB liquid medium): hypersensitive
3 | chrysomycin | active |  |  |  |  |  |  |  |  | 
4 | CCC(=O)Nc1c2sscc-2n(C)c1=O [aureothricin] |  |  |  |  |  |  |  |  | bioactive | 
5 | COC1=C(N)C(=O)c2nc(-c3nc(C(=O)O)c(C)c(-c4ccc(OC)c(OC)c4O)c3N)ccc2C1=O [Streptonigrin] | active | 8 | 3.2 | 1.6 | ≦0.2 | 3.2 | 8 | 0.5 |  | Minimal inhibitory concentrations (MIC90) MG1655 ([2]; Table 7, MHB medium): 3.2; Minimal inhibitory concentrations (MIC90) MG1655 ([2]; Table 9, MHB medium): 3.2; Minimal inhibitory concentrations (MIC90) MG1655 ([2]; Table 11, MHB medium): 3.2; Minimal inhibitory concentrations (MIC90) MG1655 ([2]; second Table 12, MHB medium): 3.2; lacZ reporter gene expression (S-Gal, blue-colored rings) [10]: induced
6 | streptavidin |  |  |  |  |  |  |  |  | bioactive | 
7 | C[C@@H]1O[C@@H]1P(=O)(O)O [Phosphomycin] |  | 32 |  |  |  |  | 8 | 64 |  | induction of the β-galactosidase activity ([11]; at 10 μg/ml, strain not specified): no induction
8 | albomycin |  |  |  |  |  |  |  |  | bioactive | 
9 | CO[C@@]12[C@H](COC(N)=O)C3=C(C(=O)C(C)=C(N)C3=O)N1C[C@@H]1N[C@@H]12 [Mitomycin C] |  |  | 3.2 | 3.2 | <0.4 | 3.2 |  |  |  | Minimal inhibitory concentrations (MIC90) MG1655 [2]: 0.8; induction of PrecN′-'lacZ fusion gene ([11]; CM242, 0.5 μg/ml): more than 40 fold; induction of PsulA′-'lacZ fusion gene compared to a non-induced control [12]: 15 fold; lacZ reporter gene expression (S-Gal, blue-colored rings) [10]: induced

— patent US20100311107A1, “Ultra-High Throughput Screening of Natural Products” (priority 2004, published 2010)
